pIC50: −log10 of the molar value.
Key:
HMG-CoA reductase = target: T1, HMG-CoA reductase (Homo sapiens, UniProt P04035); conditions: Kajinami K, 2003; Istvan ES, 2001; cited from earlier work
T1 sequence (P04035 1-888): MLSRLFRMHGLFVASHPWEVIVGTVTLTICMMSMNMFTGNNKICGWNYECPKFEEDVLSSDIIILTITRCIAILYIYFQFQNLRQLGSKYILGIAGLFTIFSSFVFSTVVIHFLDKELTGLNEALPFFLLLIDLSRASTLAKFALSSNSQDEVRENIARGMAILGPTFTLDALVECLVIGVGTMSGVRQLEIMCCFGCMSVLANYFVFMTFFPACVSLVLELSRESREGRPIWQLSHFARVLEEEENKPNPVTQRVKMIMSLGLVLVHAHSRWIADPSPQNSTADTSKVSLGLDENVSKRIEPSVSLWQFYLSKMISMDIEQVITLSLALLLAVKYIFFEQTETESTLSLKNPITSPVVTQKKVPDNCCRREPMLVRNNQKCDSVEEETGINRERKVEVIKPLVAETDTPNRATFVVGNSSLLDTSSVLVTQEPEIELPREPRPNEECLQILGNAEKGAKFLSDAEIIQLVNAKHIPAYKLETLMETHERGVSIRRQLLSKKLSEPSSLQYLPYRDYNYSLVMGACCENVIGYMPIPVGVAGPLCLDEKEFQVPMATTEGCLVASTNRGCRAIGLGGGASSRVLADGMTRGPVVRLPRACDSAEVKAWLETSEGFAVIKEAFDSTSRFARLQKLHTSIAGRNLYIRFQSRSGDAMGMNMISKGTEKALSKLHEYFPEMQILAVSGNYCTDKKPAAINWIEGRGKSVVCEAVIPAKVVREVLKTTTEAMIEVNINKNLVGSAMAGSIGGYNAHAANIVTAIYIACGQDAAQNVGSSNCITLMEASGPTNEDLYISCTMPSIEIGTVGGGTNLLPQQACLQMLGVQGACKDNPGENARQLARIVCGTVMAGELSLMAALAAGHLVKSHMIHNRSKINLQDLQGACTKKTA

[1] = target: T2, mitochondrial complex III (Mus musculus, UniProt P00158); assay: Complex III enzyme activity in mitochondrial fractions of C2C12 cells (cytochrome c reduction at 550 nm); assay type: biochemical; conditions: compound at 100 μM; background by antimycin A (2.5 μM); n = 3 independent experiments
T2 construct: the supernatant containing the mitochondria was pelleted at 14,000 g; endogenous in cells; host or cells: C2C12 cells, mitochondrial fraction
Experimental: C2C12 pellets of 20·10^6 cells were snap frozen in liquid nitrogen and kept at −80° C. until use. For preparation of the mitochondrial fractions, tissues and cells were homogenized, resuspended in 10 mM Tris-HCl (pH 7.6), and snap frozen in aliquots as follows: cells were resuspended in 10 mM Tris-HCl and pottered, and sucrose was added (215 mM). The lysate was cleared of unbroken cells by centrifugation (10 minutes 600 g) after which the supernatant containing the mitochondria was pelleted at 14,000 g for 10 minutes, resuspended in 10 mM Tris-HCl (pH 7.6), and snap frozen in aliquots. Complex III enzyme activity was measured spectrophotometrically in duplicate as described before by determination of the cytochrome c reduction at 550 nm (Janssen et al., 2007; Mourmans et al., 1997; Rodenburg, 2011). For these measurements the following substrates were used: decylubiquinol (300 μM) and cytochrome c (50 μM). Background substraction was based on decylubiquinol auto-oxidation rates for FIG. 2, and on antimycin A (2.5 μM) for table 4. The enzyme activity was determined using the linear domain of the curve. These experiments were generally performed in small reaction volumes to increase throughput. Experiments in larger reaction volumes can improve reliability of obtained values, and are planned.

[2] = target: T3, catalytic domain of the human HMG-CoA reductase (Homo sapiens, UniProt P04035); assay: HMG-CoA reductase activity and inhibition assay (Sigma CS-1090 kit, NADPH oxidation at 340 nm); assay type: biochemical; conditions: for HMGR activity (% of control) Mean (SEM): compound at 300 nM, n = 3 independent experiments
T3 construct: containing the catalytic domain of the human HMG-CoA reductase; purchased Sigma-Aldrich CS-1090
T3 sequence (P04035 426-888 limits assumed): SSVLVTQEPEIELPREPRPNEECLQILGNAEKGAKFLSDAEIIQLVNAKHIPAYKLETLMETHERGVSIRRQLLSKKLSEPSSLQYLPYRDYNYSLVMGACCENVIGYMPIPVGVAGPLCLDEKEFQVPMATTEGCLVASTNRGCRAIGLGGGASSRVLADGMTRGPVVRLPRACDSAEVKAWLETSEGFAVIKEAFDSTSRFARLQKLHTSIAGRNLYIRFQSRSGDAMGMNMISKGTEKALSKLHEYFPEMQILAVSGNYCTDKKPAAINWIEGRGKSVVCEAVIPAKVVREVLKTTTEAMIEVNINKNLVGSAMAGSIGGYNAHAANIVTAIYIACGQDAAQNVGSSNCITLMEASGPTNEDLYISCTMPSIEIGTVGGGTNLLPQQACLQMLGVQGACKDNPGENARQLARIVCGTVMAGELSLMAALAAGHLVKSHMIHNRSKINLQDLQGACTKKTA
Experimental: The human HMG-CoA reductase activity and inhibition assays were performed using the HMG-CoA reductase Assay Kit from Sigma-Aldrich (Sigma CS-1090), containing the catalytic domain of the human HMG-CoA reductase. Enzyme activity was determined spectrophotometrically, measuring the oxidation of NADPH at 340 nm. The reaction mixture contained: 0.13 mM HMG-CoA, HMG-CoA reductase, and 50 mM Tris-HCl, (pH 7.5). After 15 min incubation at 37° C., the reaction was started with the addition of 0.13 mM NADPH, and monitored for 30 min. The enzyme activity was determined using the linear domain of the curve. These experiments were generally performed in small reaction volumes to increase throughput. Experiments in larger reaction volumes can improve reliability of obtained values, and are planned.

SMILES	pIC50 (HMG-CoA reductase)	complex III activity (% of control) Mean (SEM) [1]	HMGR activity (% of control) Mean (SEM) [2]	pIC50 ([2]; dose-response curve of FIG. 2C, 95%-CI printed in the row below)
O=C(O)C[C@H](O)C[C@H](O)/C=C/c1c(C2CC2)nc2ccccc2c1-c1ccc(F)cc1 [pitavastatine]	8.15			
CC(C)c1nc(N(C)S(C)(=O)=O)nc(-c2ccc(F)cc2)c1/C=C/[C@@H](O)C[C@@H](O)Cc1nc(=O)o[nH]1 [rosuvastatin oxo-oxadiazole, N-(5-((3S,5S,E)-3,5-dihydroxy-6-(5-oxo-2,5-dihydro-1,2,4-oxadiazol-3-yl)hex-1-en-1-yl)-4-(4-fluorophenyl)-6-isopropylpyrimidin-2-yl)-N-methylmethane Sulfonamide]		85.85 (10.62) % of control	88.17 (4.21) % of control	
CC(C)c1nc(N(C)S(C)(=O)=O)nc(-c2ccc(F)cc2)c1/C=C/[C@@H](O)C[C@@H](O)Cc1nnn[nH]1 [rosuvastatin tetrazole, N-(5-((3S,5S,E)-3,5-dihydroxy-6-(1H-tetrazol-5-yl)hex-1-en-1-yl)-4-(4-fluorophenyl)-6-isopropylpyrimidin-2-yl)-N-methylmethanesulfonamide]		85.24 (4.09) % of control	81.28 (4.70) % of control	
CCC(C)(C)C(=O)O[C@H]1C[C@@H](C)C=C2C=C[C@H](C)[C@H](CC[C@@H](O)C[C@@H](O)CC(N)=O)[C@H]21 [simvastatin amide, (1S,3R,7S,8S,8aR)-8-((3R,5R)-7-amino-3,5-dihydroxy-7-oxoheptyl)-3,7-dimethyl-1,2,3,7,8,8a-hexahydronaphthalen-1-yl 2,2-dimethylbutanoate]		73.77 (7.57) % of control	110.10 (11.81) % of control	
CCC(C)(C)C(=O)O[C@H]1C[C@@H](C)C=C2C=C[C@H](C)[C@H](CC[C@@H](O)C[C@@H](O)CC(=O)NO)[C@H]21 [simvastatin hydroxamic acid, (1S,3R,7S,8S,8aR)-8-((3R,5R)-3,5-dihydroxy-7-(hydroxyamino)-7-oxoheptyl)-3,7-dimethyl-1,2,3,7,8,8a-hexahydronaphthalen-1-yl 2,2-dimethylbutanoate]		68.59 (5.73) % of control	38.83 (5.19) % of control	7.41
CCC(C)(C)C(=O)O[C@H]1C[C@@H](C)C=C2C=C[C@H](C)[C@H](CC[C@@H](O)C[C@@H](O)CC(=O)NC)[C@H]21 [simvastatin methylamide, (1S,3R,7S,8S,8aR)-8-((3R,5R)-3,5-dihydroxy-7-(methylamino)-7-oxoheptyl)-3,7-dimethyl-1,2,3,7,8,8a-hexahydronaphthalen-1-yl 2,2-dimethylbutanoate]		50.43 (5.71) % of control	92.40 (8.84) % of control	
CCC(C)(C)C(=O)O[C@H]1C[C@@H](C)C=C2C=C[C@H](C)[C@H](CC[C@@H](O)C[C@@H](O)CC#N)[C@H]21 [simvastatin nitrile, (1S,3R,7S,8S,8aR)-8-((3R,5S)-6-cyano-3,5-dihydroxyhexyl)-3,7-dimethyl-1,2,3,7,8,8a-hexahydronaphthalen-1-yl 2,2-dimethylbutanoate]		53.24 (1.53) % of control	85.05 (10.36) % of control	
CCC(C)(C)C(=O)O[C@H]1C[C@@H](C)C=C2C=C[C@H](C)[C@H](CC[C@@H](O)C[C@@H](O)Cc3nc(=O)o[nH]3)[C@H]21 [simvastatin oxo-oxadiazole, (1S,3R,7S,8S,8aR)-8-((3R,5)-3,5-dihydroxy-6-(5-oxo-2,5-dihydro-1,2,4-oxadiazol-3-yl)hexyl)-3,7-dimethyl-1,2,3,7,8,8a-hexahydronaphthalen-1-yl 2,2-dimethylbutanoate]		74.37 (4.20) % of control	73.44 (2.81) % of control	
CCC(C)(C)C(=O)O[C@H]1C[C@@H](C)C=C2C=C[C@H](C)[C@H](CC[C@@H](O)C[C@@H](O)Cc3nnn[nH]3)[C@H]21 [simvastatin tetrazole, (1S,3R,7S,8S,8aR)-8-((3R,5S)-3,5-dihydroxy-6-(1H-tetrazol-5-yl)hexyl)-3,7-dimethyl-1,2,3,7,8,8a-hexahydronaphthalen-1-yl 2,2-dimethylbutanoate]		80.37 (5.13) % of control	72.43 (4.97) % of control	

Source: patent US20190038588A1, “NOVEL CLASS OF COMPOUNDS FOR THE TREATMENT OF CARDIOVASCULAR DISEASE” (STICHTING KATHOLIEKE UNIVERSITEIT, priority 2016, published 2019)
